From the Kinase Knowledgebase extract (Sharma et al. 2016)

biological target: MAPK14 (UniProt Q16539); test: Inhibition of MAPK14 Kinase Activity
Sequence (Q16539 whole entry, looked up): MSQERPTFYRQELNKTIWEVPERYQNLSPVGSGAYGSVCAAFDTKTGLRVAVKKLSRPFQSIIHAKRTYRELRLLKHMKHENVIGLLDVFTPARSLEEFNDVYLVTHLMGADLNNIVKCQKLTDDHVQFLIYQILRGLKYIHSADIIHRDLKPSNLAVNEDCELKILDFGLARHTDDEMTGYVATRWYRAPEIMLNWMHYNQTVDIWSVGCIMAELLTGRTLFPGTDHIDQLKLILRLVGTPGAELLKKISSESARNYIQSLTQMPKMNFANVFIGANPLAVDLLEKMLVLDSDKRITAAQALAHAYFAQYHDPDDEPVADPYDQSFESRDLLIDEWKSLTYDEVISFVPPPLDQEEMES

IC50, < 50 µM:
CCCSc1nccc(-c2c(-c3ccc(F)cc3)ncn2[C@@H](CO)c2ccccc2)n1, CC[C@@H](CO)n1cnc(-c2ccc(F)cc2)c1-c1ccnc(NC)n1, COc1nccc(-c2c(-c3ccc(F)cc3)ncn2[C@@H](CO)Cc2ccccc2)n1, COc1nccc(-c2c(-c3ccc(F)cc3)ncn2C(C)COc2ccccc2)n1 (stereo unspecified), CCCSc1nccc(-c2c(-c3ccc(F)cc3)ncn2C(CO)CO)n1, CNc1nccc(-c2c(-c3ccc(F)cc3)ncn2C(C)CO)n1 (stereo unspecified), CCCSc1nccc(-c2c(-c3ccc(F)cc3)ncn2[C@H](CO)c2ccccc2)n1, CNc1nccc(-c2c(-c3ccc(F)cc3)ncn2[C@@H](CO)c2ccccc2)n1, COc1nccc(-c2c(-c3ccc(F)cc3)ncn2[C@@H](CO)c2ccccc2)n1, CC[C@H](CO)n1cnc(-c2ccc(F)cc2)c1-c1ccnc(NC)n1, CC[C@H](CO)n1cnc(-c2ccc(F)cc2)c1-c1ccnc(OC)n1, COc1nccc(-c2c(-c3ccc(F)cc3)ncn2C(CO)CO)n1, COc1nccc(-c2c(-c3ccc(F)cc3)ncn2[C@H](CO)Cc2ccccc2)n1, CC[C@@H](CO)n1cnc(-c2ccc(F)cc2)c1-c1ccnc(OC)n1, CNc1nccc(-c2c(-c3ccc(F)cc3)ncn2[C@H](CO)c2ccccc2)n1, CCCSc1nccc(-c2c(-c3ccc(F)cc3)ncn2[C@@H](CC)CO)n1, COc1nccc(-c2c(-c3ccc(F)cc3)ncn2C(C)CN(C)C)n1 (stereo unspecified), C[C@@H](CO)n1cnc(-c2ccc(F)cc2)c1-c1ccncn1, CCCSc1nccc(-c2c(-c3ccc(F)cc3)ncn2C(C)CN(C)C)n1 (stereo unspecified), CCCSc1nccc(-c2c(-c3ccc(F)cc3)ncn2[C@H](CC)CO)n1, CCCSc1nccc(-c2c(-c3ccc(F)cc3)ncn2C(C)CC(=O)OC)n1 (stereo unspecified), COc1nccc(-c2c(-c3ccc(F)cc3)ncn2[C@H](CO)c2ccccc2)n1, C[C@@H](CO)n1cnc(-c2ccc(F)cc2)c1-c1ccnc(Nc2ccccc2)n1, CCCSc1nccc(-c2c(-c3ccc(F)cc3)ncn2[C@H](C)CO)n1, CCCSc1nccc(-c2c(-c3ccc(F)cc3)ncn2[C@@H](C)CO)n1, COc1nccc(-c2c(-c3ccc(F)cc3)ncn2C(C)CO)n1 (stereo unspecified)
